How the values were obtained:
[1] = biological target: T1, βENaC (Homo sapiens, UniProt P51168); assay: Biotinylated peptide pull-down of ENaC subunits from HEK293T cells; type: binding; conditions: subunits individually expressed, biotinylated peptide
T1 construct: expressed in transfected cells; host or cells: HEK293T cells (lysate)
T1 sequence (P51168 1-640): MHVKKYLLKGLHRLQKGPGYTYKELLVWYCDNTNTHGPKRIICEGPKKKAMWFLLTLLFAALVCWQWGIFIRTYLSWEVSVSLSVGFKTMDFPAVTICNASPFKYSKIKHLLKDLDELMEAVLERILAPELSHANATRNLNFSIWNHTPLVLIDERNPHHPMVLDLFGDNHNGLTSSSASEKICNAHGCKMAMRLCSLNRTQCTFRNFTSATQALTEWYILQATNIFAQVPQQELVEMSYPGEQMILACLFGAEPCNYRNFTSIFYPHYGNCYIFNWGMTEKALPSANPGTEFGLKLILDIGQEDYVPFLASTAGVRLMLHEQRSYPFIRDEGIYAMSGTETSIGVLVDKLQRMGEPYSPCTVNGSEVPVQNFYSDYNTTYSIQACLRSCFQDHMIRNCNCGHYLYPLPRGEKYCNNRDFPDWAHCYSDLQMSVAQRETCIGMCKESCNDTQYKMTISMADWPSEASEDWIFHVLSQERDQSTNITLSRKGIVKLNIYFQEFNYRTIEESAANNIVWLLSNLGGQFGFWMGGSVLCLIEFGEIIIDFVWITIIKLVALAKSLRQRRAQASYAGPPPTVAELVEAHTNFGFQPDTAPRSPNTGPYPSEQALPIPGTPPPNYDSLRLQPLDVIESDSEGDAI
Method: HEK293T cells were transfected with double-tagged human ENaC subunits with HA and V5 epitopes at the N- and C-termini, respectively, in combination with wild-type untagged subunit cDNA. When all three ENaC subunits were expressed, 0.5 μg of each subunit were transfected per well. When expressed individually, 0.75 μg of the subunit were transfected per well. The transfected cells were lysed 24 h later using NP-40 buffer with 1× complete EDTA-free protease inhibitor (Roche, Basel, Switzerland). The lysate was centrifuged at 16,300×g for 15 minutes at 4° C. and the supernatant collected. Protein concentration was determined using the BCA assay and 500 μg of protein plus 0.25 mg peptide and 100 μL of neutravidin were added to a spin column and rotated end-over-end at 4° C. for 24 h (all ThermoFisher Scientific, Rockford, Ill., USA). Flow-through was collected by centrifugation at 1000×g for 30 s. The beads were then washed 5× with NP-40 buffer. Bound protein was eluted by boiling at 95° C. for 10 minutes in 75 μL of 2×LDS NuPAGE sample buffer with 1× sample reducing agent followed by centrifugation at 16,300×g for 2 minutes. Samples were resolved on 4-12% Bis-Tris gels in MES and transferred to a nitrocellulose membrane using iBlot, setting P3 for 8 min (Invitrogen, Carlsbad, Calif., USA). The membrane was probed using 1:1000 anti-V5 antibody (Invitrogen, Carlsbad, Calif., USA) overnight at 4° C. in 3% fish gelatin in TBS-T. The blot was then incubated for 1 h at room temperature with an ECL sheep anti-mouse IgG secondary antibody and detected by ECL reagent (ThermoFisher Scientific, Waltham, Mass., USA) or by incubation with a goat anti-mouse IRDye secondary antibody and analyzed by an Odyssey infrared imaging system (LI-COR Biosciences, Lincoln, Nebr., USA).
Peptide pull-down assays were performed as described above. Samples were eluted by the addition of 100 μL of 0.1 M sodium citrate, pH 5.5, 0.1% SDS to the beads and incubating at 100° C. for 2 minutes, followed by centrifugation at 16,300×g for 2 minutes. […]

[2] = biological target: T2, ENaC (Homo sapiens, UniProt P37088+P51168+P51170); assay: ASL height 6 h after exposure, alanine scan of S18; type: cell-based
T2 construct: measured the transepithelial voltage under thin film conditions in human bronchial epithelial cultures; endogenous in cells; host or cells: primary human bronchial epithelial cultures (normal or CF donors)
T2 sequence (P37088 1-669): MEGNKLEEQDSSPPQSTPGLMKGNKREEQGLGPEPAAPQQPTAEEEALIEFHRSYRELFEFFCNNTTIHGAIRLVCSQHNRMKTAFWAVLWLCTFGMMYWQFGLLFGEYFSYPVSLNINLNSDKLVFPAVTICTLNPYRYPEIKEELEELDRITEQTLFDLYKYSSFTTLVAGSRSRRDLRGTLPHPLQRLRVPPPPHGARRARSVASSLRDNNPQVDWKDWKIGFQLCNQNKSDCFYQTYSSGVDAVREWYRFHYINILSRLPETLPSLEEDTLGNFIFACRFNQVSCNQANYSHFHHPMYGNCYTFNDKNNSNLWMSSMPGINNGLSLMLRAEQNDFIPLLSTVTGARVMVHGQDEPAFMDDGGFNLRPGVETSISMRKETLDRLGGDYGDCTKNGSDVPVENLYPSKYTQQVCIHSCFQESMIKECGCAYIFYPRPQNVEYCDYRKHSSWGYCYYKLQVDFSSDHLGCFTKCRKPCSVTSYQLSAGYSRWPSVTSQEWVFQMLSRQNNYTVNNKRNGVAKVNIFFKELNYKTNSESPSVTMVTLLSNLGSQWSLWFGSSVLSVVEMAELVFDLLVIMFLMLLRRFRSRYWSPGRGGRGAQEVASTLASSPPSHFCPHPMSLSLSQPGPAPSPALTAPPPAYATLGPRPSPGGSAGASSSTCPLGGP
T2 sequence (P51168 1-640): T1 sequence (P51168 1-640)
T2 sequence (P51170 1-649): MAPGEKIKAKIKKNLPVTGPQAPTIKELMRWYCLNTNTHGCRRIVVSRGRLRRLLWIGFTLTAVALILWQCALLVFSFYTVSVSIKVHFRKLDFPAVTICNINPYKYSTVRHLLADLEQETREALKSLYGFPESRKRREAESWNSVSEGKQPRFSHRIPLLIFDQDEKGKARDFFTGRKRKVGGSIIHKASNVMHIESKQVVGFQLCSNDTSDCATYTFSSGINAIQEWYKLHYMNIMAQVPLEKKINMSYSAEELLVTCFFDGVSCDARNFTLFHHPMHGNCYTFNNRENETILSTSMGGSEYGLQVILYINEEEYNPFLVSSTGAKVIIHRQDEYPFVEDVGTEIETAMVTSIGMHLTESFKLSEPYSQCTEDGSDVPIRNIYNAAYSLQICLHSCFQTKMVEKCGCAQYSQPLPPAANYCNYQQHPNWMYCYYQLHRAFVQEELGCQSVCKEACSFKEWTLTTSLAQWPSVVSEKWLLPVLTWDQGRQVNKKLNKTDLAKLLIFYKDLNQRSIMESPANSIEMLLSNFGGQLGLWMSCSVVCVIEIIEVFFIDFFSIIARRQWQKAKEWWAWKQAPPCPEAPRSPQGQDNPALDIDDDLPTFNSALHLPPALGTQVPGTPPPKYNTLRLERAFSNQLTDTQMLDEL
Method: To label the ASL, PBS containing 10 kDa Rhodamine dextran (0.2-2 mg/mL; Invitrogen, Carlsbad, Calif., USA) was added to HBEC mucosal surfaces as previously described (Tarran et al., Mol. Cell 8:149 (2001)). When added, peptides with or without 100 nM neutrophil elastase, 1 U/mL aprotinin, activated neutrophil supernatant (ANS) (Haynes et al., Am. J. Physiol. Heart Circ. Physiol. 294:H379 (2008)) or 10 μM sivelestat (Sigma-Aldrich, St Louis, Mo., USA) were added to the mucosal surface along with the Rhodamine dextran. Bumetanide (100 μM) was added to the serosal solution.
ASL height was measured 6 h after exposure to vehicle, control peptide, S18 or S18 with specific residues mutated to alanine as outlined in FIG. 31. […] NB, G1, G2 and A18 were not mutated. […] All n=6.

[3] = system: CF HBECs; conditions: 8 h ASL height
Method: To label airway surface liquid, Ringer containing Texas Red-dextran (2 mg/ml; Invitrogen) was added to human bronchial epithelial culture mucosal surfaces. Perfluorocarbon was added mucosally to prevent evaporation of the airway surface liquid and the culture placed in a chamber containing 100 μl Ringer on the stage of a Leica SP5 confocal microscope with a 63× glycerol immersion objective. 5 points per culture were scanned and an average airway surface liquid height determined. For confocal microscopy human bronchial epithelial cultures were bathed serosally in a modified Ringer solution containing (mM): 116 NaCl, 10 NaHCO3, 5.1 KCl, 1.2 CaCl2, 1.2 MgCl2, 20 TES, 10 glucose, pH 7.4). At all other times, human bronchial epithelial cultures were maintained in a modified BEGM growth medium which contained 24 mM NaHCO3 gassed with 5% CO2.

[4] = system: serine proteases; assay: Endogenous protease activity (BGAR-MCA cleavage) on mucosal surface of human bronchial epithelial cultures; type: cell-based
Method: (§1) For cell-free assays, reactions were carried out in 50 μl Ringer in a 96 well plate format with 100 μM BGAR-MCA. To measure endogenous protease activity in human bronchial epithelial cultures, 30 μl Ringer with 100 μM BGAR-MCA were placed directly onto the mucosal surfaces of human bronchial epithelial cultures grown on 12 mm T-clear inserts and the cultures were assayed in 12 well plates.

[5] = biological target: T3, αENaC-eGFP and βENaC-mCherry (Homo sapiens, UniProt P37088+P51168); assay: Acceptor-photobleaching FRET between fluorescently tagged ENaC subunits; type: cell-based; conditions: one hour of exposure
T3 construct: expressed in transfected cells
Description: Ai, cartoon of αENaC-eGFP and βENaC-mCherry under basal conditions (γENaC not shown). Aii We hypothesize that S18 binding to the extracellular loop of βENaC (1) induces a conformational change in ENaC which is reflected as altered intracellular FRET (2). This change may facilitate NEDD4-2-induced ubiquitination (3), leading to internalization of αβγENaC (4). […] In contrast, exposure to aprotinin had no effect. All n=8-10. C, Typical confocal images of HEK cells expressing αγENaC and βENaC-eGFP before and 1 h after 100 μM S18. Cell outlines are traced in white.
Since ENaC is regulated by NEDD4-2 binding to its C-termini, which leads to ubiquitination of its N-termini and internalization, we propose that S18 causes a conformational change in ENaC, leading to increased ubiquitination followed by internalization (FIG. 21A). As a first step towards understanding the mechanism of action of SPLUNC1, we performed FRET on fluorescently tagged ENaCs. […] Furthermore, βENaC-eGFP internalized upon S18 binding (FIG. 21C), consistent with our surface biotinylation data from oocytes.

[6] = system: trypsin; assay: Cell-free fluorogenic assay, trypsin cleavage of BGAR-MCA; type: biochemical; conditions: 50 ng/ml rSPLUNC1 or 2 U/ml aprotinin; 1.0 or 0.3 U/ml trypsin
Method: as §1

[7] = biological target: T2, ENaC; assay: Transepithelial voltage (PD), thin film conditions, human bronchial epithelial cultures; type: cell-based; design: reduction of transepithelial voltage: dose or concentration left out as unconfirmed
Description: Tissue procurement and cell culture: Cells were harvested by enzymatic digestion from human bronchial tissue as previously described under a protocol approved by the UNC School of Medicine IRB (Tarran et al., J. Gen. Physiol. 127:591 (2006)). Human excess donor lungs and excised recipient lungs were obtained at the time of lung transplantation from portions of main stem or […] bronchi and cells were harvested by enzymatic digestion. All preparations were maintained at an air-liquid interface in a modified bronchial epithelial medium and used 2-5 weeks after seeding on 12 mm T-Clear inserts (Corning Costar) coated with human placental type VI collagen (Sigma). Phosphate buffered saline (PBS) was used for washing human bronchial epithelial culture mucosal surfaces. HBECs were maintained at an air-liquid interface in a modified bronchial epithelial growth medium (BEGM) with 5% CO2 at 37° C. and used 2-5 weeks after seeding on 12-mm T-clear inserts (Corning-Costar, Corning, N.Y., USA) (Randell, Methods Mol. Biol. 742:285 (2011)).
(§2) A single-barreled potential difference-sensing electrode was placed in the airway surface liquid by micromanipulator and used in conjunction with a macroelectrode in the serosal solution to measure transepithelial voltage using a voltmeter (World Precision Instruments). […] Transepithelial resistance was routinely measured using the EVOM system (WPI) as previously described (Tarran et al., J. Gen. Physiol. 127:591 (2006)).

[8] = biological target: T2, ENaC; assay: Transepithelial electrical resistance in human bronchial epithelial cultures; type: cell-based; conditions: 50 ng/ml SPLUNC1 30 min or amiloride 10 min; effects not additive
Description: as §2, with “([…]” for “(Tarran”

ADGGLLLLNNPPPPQTVV (Control peptide sequence) [ABC, reference compound]
binding to βENaC (pull-down) [1]: No β-ENaC was observed in the elution | ASL height [2]: no effect on ASL height

aprotinin [reference compound]
CF ASL hyperabsorption [3]: reduces CF ASL hyperabsorption | CF ASL hyperabsorption in the presence of neutrophil elastase ([3]; neutrophil elastase): did not prevent neutrophil elastase from activating ENaC | BGAR-MCA cleavage on human bronchial epithelial mucosal surfaces [4]: inhibited | FRET between αENaC-eGFP and βENaC-mCherry [5]: no effect | inhibition of trypsin cleavage of fluorogenic substrate BGAR-MCA [6]: ~100% | rate of inhibition of the transepithelial voltage ([7]; rSPLUNC1 vs aprotinin addition, effects not additive): identical rates

N=C(N)NC(=O)c1nc(Cl)c(N)nc1N [amiloride, reference compound]
increase of transepithelial electrical resistance [8]: ~33% | reduction of transepithelial voltage ([7]; amiloride for 10 min (FIG. 4 legend), n=12): 54%
